Data published in PMC11526092 (2024).

Tested on: h1_(TTAA)2 (DNA, hairpin) CGTTAATTAACGCCCCCGTTAATTAACG
Assay: SPR, steady state, two-site fit
Settings: Na+ 100 mM (NaCl), 1 mM EDTA; 10 mM MES pH 6.25, 0.005% P20, 25 °C; site 1 of 2; error about ±10%

K1: 680 nM
SMILES: N=C(N)c1ccc(OCCCCCOc2ccc(C(=N)N)cc2)cc1
